Biological target: T1, Acaa2 (Mus musculus, UniProt Q8BWT1)
T1 sequence (Q8BWT1 1-397): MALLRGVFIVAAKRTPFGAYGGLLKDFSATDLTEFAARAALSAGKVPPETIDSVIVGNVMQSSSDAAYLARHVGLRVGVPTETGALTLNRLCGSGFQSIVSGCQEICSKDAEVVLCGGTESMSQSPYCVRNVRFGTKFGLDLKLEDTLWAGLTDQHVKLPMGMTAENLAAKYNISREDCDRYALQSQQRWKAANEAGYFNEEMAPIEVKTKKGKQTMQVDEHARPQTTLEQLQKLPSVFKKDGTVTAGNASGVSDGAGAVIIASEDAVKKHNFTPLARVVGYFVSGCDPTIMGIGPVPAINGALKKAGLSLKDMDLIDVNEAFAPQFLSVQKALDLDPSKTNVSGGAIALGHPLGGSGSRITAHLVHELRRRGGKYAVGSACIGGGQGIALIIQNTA
Test: competition against IAyne labelling, in-gel fluorescence
Assay type: biochemical
Conditions: covalent; lysate of overexpressing HEK293T; 30 min preincubation

`N#Cc1c(Cl)c(Cl)c(Cl)c(C#N)c1Cl` [chlorothalonil] was tested, and the “% reduction in IAyne labeling at 100 nM” value was 9.4 ± 1.2%.

Reference: article PMC4621755 (Chemistry & biology, 2015)
